Measurements published in US20050203000A1, “Use of benzyl alcohol, and other phenolic preservatives to reduce pain during intradermal injection” (priority 2003, published 2005).

Legend:
[1] = Dermal irritancy of preservatives in intradermal formulations (Draize dermal irritation scoring); type: in vivo, human; conditions: irritancy potential had been seen in animal models such as swine
Excerpt: Benzyl alcohol, m-cresol and other preservatives were previously thought to be deleterious for inclusion in ID formulations based on their potential for dermal irritancy measured in animal models such as swine (Draize Irritancy Scores, NB 00-8440-01). In humans, however, these effects are not observed and beneficial results are gained in the perception of reduced pain.
(§1) Typically, each participating subject received a series of ‘treatments’ consisting of intradermal infusions or injections of either sterile unpreserved isotonic saline, or sterile bacteriostatic isotonic saline for injection in the anterior thigh using microneedle-based intradermal injection devices. Participants were asked to rate the pain immediately after the device was applied to the skin, and at the end of the injection/infusion procedure. In addition, injection sites were evaluated for irritation using the Draize dermal irritation scoring scale for erythema and edema, and for the presence of any other adverse skin effects, occurring at the time of injection or developing at a later time.

[2] = Pain perception of intradermal injection/infusion, Gracely Box SL Scale (0-20), human clinical study; type: in vivo; conditions: recent clinical trials
Protocol: A series of prospective, randomized, open label human clinical studies were conducted. The following inclusion criteria was typically used: • 18 years of age or older • In stable health status with no acute or severe illness • Willing to complete all study procedures • Available for designated study days
as §1, with “time. […]” for “time.”
Pain was determined using a Gracely Box SL Scale (reference: Heft, Gracely and Dubner, Pain, 1980, 9:363-373). Pain scores were typically recorded after insertion of the intradermal delivery device, and upon complete intradermal instillation of the total saline dose. […]
Typically, pain scale scores were analyzed by ANOVA using a linear-type model. […]

Compound | Dermal irritancy effects in humans [1] | Pain scores for intradermal delivery compared with preservative-free solutions [2]
Cc1cccc(O)c1 [m-cresol] | not observed | 
insulin |  | significantly lower pain scores
OCc1ccccc1 [Benzyl alcohol] | not observed | 
